In this assay the test system is NC/Nga mice. Briefly: DNCB-induced atopic dermatitis-like skin lesions. Type of assay: in vivo, mouse. An excerpt:
Seven-week-old NC/Nga mice were purchased from the Shizuoka Laboratory Animal Center (Shizuoka, Japan) and allowed to adapt to the environment for a week prior to use. The procedures for the induction of atopic dermatitis-like symptoms in mice using 1-chloro-2,4-dinitro-benzene (DNCB) have been well described previously ([27]). Briefly, the dorsal hair of the mice was shaved 2 days before DNCB administration. For the induction of atopic dermatitis, 1% DNCB was applied to the dorsal skin of the mice twice weekly for 7 days and then 0.2% DNCB was applied thrice weekly for 21 days. The mice were divided into the following […] treatment groups (n = 10 per group): 0.3 and 3% Vp2N/day, 0.3 and 3% Vp8N/day, 0.1% dexamethasone/day, and vehicle only, dorsally administered from 9 to 13 weeks of age. As a negative control for atopic dermatitis, NC/Nga mice that were not treated with DNCB were maintained under pathogen-free conditions. Laboratory animal breeding management was based on the “Guide for the Care and Use of Laboratory Animals,” and all experiments were approved by the Institutional Animal Care and Use Committees of Gyeonggi Institute of Science & Technology.

“LQSEVEGVKNIMTQNVE [Vp8N, 17-mer peptide, N-terminal region of VAMP8 SNARE motif]”: the epidermal thickness entry (0.3 and 3% peptide/day dorsally for 4 weeks, n = 10 per group, versus DNCB/vehicle-treated group (Figure 5C)) was “significantly reduced”. The “atopic dermatitis features (acanthosis, hypergranulosis, hyperkeratosis) in hematoxylin and eosin-stained sections” value (0.3 and 3% peptide/day dorsally, 9 to 13 weeks of age, n = 10 per group, compared with 0.1% dexamethasone/day group (Figure 5B)) is “clearly alleviated to a similar extent”. For the same sequence, the ear thickness result (0.3 and 3% peptide/day or 0.1% dexamethasone/day for 4 weeks, n = 10 per group (Figure 5D)) is “reduced”. In addition, where the note is “daily dorsal application for 4 weeks, n = 10 per group (Figure 5F)”, the “serum IgE levels” value was “significantly reduced”.
